Experimental data taken from patent US20070009566A1, “Method and apparatus for treating bacterial infections in devices” (priority 2005, published 2007).
Converted amounts (≈) assume the structure as drawn. Like-named read-outs stand apart in the source and are kept apart here. Where no end group is shown, it is not given here.

Legend:
[1] = tested on: S. aureus strain Smith diffuse (SD), planktonic organisms; experiment: Susceptibility testing by classical method (microbroth dilution, MIC/MBC, planktonic organisms); type: cell-based; settings: 10 μg of RIP pre-treatment (in 10 μL MH broth/well), 30 minutes
Text: (§1) Organisms: The inventors chose the S. aureus strain Smith diffuse (SD).
National Committee for Clinical Laboratory Standards, Fifth Edition, Approved Standard M7-A5, Wayne, Pa. (2001).

[2] = tested on: S. aureus strain Smith diffuse (SD), adherent organisms
[3] = tested on: S. aureus strain Smith diffuse (SD), adherent organisms; experiment: microbe, parasite or virus in culture; settings: Staphylococcus aureus
[4] = tested on: S. aureus strain Smith diffuse; experiment: Rat central venous catheter (CVC)-associated infection model, lock technique; settings: day seven; for Quantitative blood culture / Quantitative catheters/venous tissues culture: mean ± S.D.; for Antimicrobial activity in quantitative peripheral blood cultures (in words): at concentration of MBC for adherent cells, compared with untreated control
[5] = tested on: S. aureus strain Smith diffuse (SD) biofilm; experiment: Adherent biofilm formation (crystal violet, OD 570 nm); type: cell-based; settings: with addition of RIP into each well; data not shown
Description: as §1
Adherent biofilm formation for susceptibility testing: To develop a biofilm, 50 μL of Triptic Soy broth (“TSB”) containing 10^6 CFU/mL of bacteria was added under aseptic conditions to each well of a tissue culture-treated polystyrene 96-well plate containing 150 μL of TSB-2% glucose. […] To evaluate the formation of adherent biofilm, the remaining attached bacteria were fixed with 0.2 mL of 99% methanol per well, and after 15 min, plates were emptied and left to dry. […] Stepanovic et al., J Microbiol Methods 40:175-179 (2000); and Christensen et al., J Clin Microbiol 22:996-1006 (1985). The plates were air dried. The dye bound to the adherent cells was solubilized with 0.2 mL of 33% (v/v) glacial acetic acid per well.

[6] = 10 μg of RIP pre-treatment (in 10 μL MH broth/well), 30 minutes
[7] = read-out: MBC, adherent organisms, 10 μg of RIP pre-treatment (in 10 μL MH broth/well), 30 minutes
[8] = read-out: MBC, adherent organisms, without RIP pre-treatment
[9] = read-out: MIC, adherent organisms, 10 μg of RIP pre-treatment (in 10 μL MH broth/well), 30 minutes
[10] = read-out: MIC, adherent organisms, without RIP pre-treatment
[11] = antibiotic lock 8.00 μg/ml (MBC for adherent cells), 1 hour dwell
[12] = antibiotic lock 1,024 μg/ml, 1 hour dwell

Row | Compound | MBC, planktonic organisms [1] [µg/mL] | MIC, planktonic organisms [1] [µg/mL] | MIC, adherent organisms [2, 6] [µg/mL] | MIC, adherent organisms ([2]; without RIP pre-treatment) [µg/mL] | MBC [3, 7] [µg/mL] | MBC [3, 8] [µg/mL] | MIC [3, 9] [µg/mL] | MIC [3, 10] [µg/mL] | Quantitative blood culture [4, 11] | Quantitative catheters/venous tissues culture [4, 11] | Quantitative blood culture [4, 12] | Quantitative catheters/venous tissues culture [4, 12] | Antimicrobial activity in quantitative peripheral blood cultures (in words) [4] | Slime production (photometrical method) [5] | Quantitative blood culture ([4]; RIP-impregnated CVC alone) | Quantitative catheters/venous tissues culture ([4]; RIP-impregnated CVC alone)
1 | C[C@@H](O)[C@H]1C(=O)N2C(C(=O)O)=C(SCCN=CN)C[C@H]12 [Imipenem, imipenem] | 1.00 (≈ 3.34 µM) | 0.50 (≈ 1.67 µM) | 0.50 (≈ 1.67 µM) | 1.00 (≈ 3.34 µM) | 2 (≈ 6.68 µM) | 8 (≈ 26.7 µM) | 0.5 (≈ 1.67 µM) | 1 (≈ 3.34 µM) | 5.8 × 10^3 ± 1.2 × 10^3 CFU/ml | 6.9 × 10^6 ± 2.1 × 10^6 CFU/ml | 5.7 × 10^1 ± 1.2 × 10^1bc CFU/ml | 6.0 × 10^5 ± 1.9 × 10^5bc CFU/ml |  |  |  | 
2 | CN[C@H](CC(C)C)C(=O)N[C@H]1C(=O)N[C@@H](CC(N)=O)C(=O)N[C@H]2C(=O)N[C@H]3C(=O)N[C@H](C(=O)N[C@H](C(=O)O)c4cc(O)cc(O)c4-c4cc3ccc4O)[C@H](O)c3ccc(c(Cl)c3)Oc3cc2cc(c3O[C@@H]2O[C@H](CO)[C@@H](O)[C@H](O)[C@H]2O[C@H]2C[C@](C)(N)[C@H](O)[C@H](C)O2)Oc2ccc(cc2Cl)[C@H]1O [Vancomycin] | 2.00 (≈ 1.38 µM) | 1.00 (≈ 0.69 µM) | 1.00 (≈ 0.69 µM) | 2.00 (≈ 1.38 µM) | 2 (≈ 1.38 µM) | 16 (≈ 11 µM) | 1 (≈ 0.69 µM) | 2 (≈ 1.38 µM) |  |  | 5.3 × 10^1 ± 1.1 × 10^1bc CFU/ml | 5.4 × 10^5 ± 1.6 × 10^5bc CFU/ml | weak antimicrobial activity |  |  | 
3 | YSPWTNF-NH2 [RIP, YSPWTNF-NH2] |  |  |  |  |  |  |  |  |  |  |  |  |  | much lower | 3.4 × 10^1 ± 0.8 × 10^1b CFU/ml | 1.4 × 10^3 ± 0.3 × 10^3b CFU/ml
4 | O=C(O)c1cn(C2CC2)c2cc(N3CCNCC3)c(F)cc2c1=O [Ciprofloxacin, ciprofloxacin] |  |  |  |  |  |  |  |  |  |  | 6.6 × 10^1 ± 1.4 × 10^1bc CFU/ml | 7.4 × 10^5 ± 2.1 × 10^5bc CFU/ml | weak antimicrobial activity |  |  | 
